One molecule from patent US20110021355A1, “FORMULATION WITH REDUCED HYGROSCOPICITY” (BAYER TECHNOLOGY SERVICES GMBH, priority 2008, published 2011) can be followed below.

Each structure is given as a SMILES string.

This data set in a line: Final pH of the formulation after dissolution in 0.01-molar hydrochloric acid / release. Format: physicochemical. As to conditions: 0.1 g solid in 100 g of 0.01-molar hydrochloric acid, 400 rpm (FIG. 2). How it is done: For verification of the final pH after dissolution, 100 g of 0.01-molar hydrochloric acid was put in a beaker and stirred with an inclined-vane stirrer at 400 rpm. Then 0.1 g of the solid to be verified (formulation from example 1, and magnesium hydroxide) was added and the increase in pH was recorded (pH-meter: Knick®Calimatic 766).

Take `[Mg+2].[OH-].[OH-]` [pure magnesium hydroxide, magnesium hydroxide]: the “time after which the final pH is established” value was “about 1800 s”.
